According to patent US20240228458A1, “PYRIMIDINE DERIVATIVE HAVING PROTEIN KINASE INHIBITORY ACTIVITY, AND THERAPEUTIC PHARMACEUTICAL COMPOSITION COMPRISING SAME” (THERAPEX CO., LTD., priority 2021, published 2024):

Legend:
Assay type in all cases: cell-based
[1] = test system: Ba/F3 cells expressing EGFR-wt; experiment: Growth inhibition (GI50) of Ba/F3 cells expressing EGFR-wt, Celltiter glo; settings: Mus musculus, BaF3, 72 h
Procedure: (§1) In this experimental example, a determination was made as to whether the compounds prepared in Examples 1-283 have the ability to inhibit the growth of Ba/F3 cells expressing EGFR-wt, del19/T790M/C797S (EGFR-DTC), L858R/T790M/C797S (EGFR-LTC), del19/T790M (EGFR-DT), and L858R/T790M (EGFR-LT) variants.
(§2) The parental Ba/F3 cell line is a population of cells that are not introduced with EGFR variants. Specifically, 100 μl of a cell line expressing each variant was plated in a 96-well plate at a density of 100,000 cells/ml. 10-point, 4-fold serial dilutions of each compound were prepared, starting at 2 mM. After 4 h, 0.5 μl of the compound (0.5% DMSO) was added, followed by incubation at 37° C. and 5% CO2 for 72 h. After incubation, the number of viable cells was measured using a Celltiter glo assay kit (Promega) and the GI50 of the compound was determined. The term “GI50” refers to the molar concentration (μM) of the compound required for 50% growth inhibition of cells.

[2] = test system: Ba/F3 cells expressing del19/T790M/C797S (EGFR-DTC); experiment: Growth inhibition (GI50) of Ba/F3 cells expressing del19/T790M/C797S (EGFR-DTC), Celltiter glo; settings: Mus musculus, BaF3, 72 h
Procedure: as §1, §2

[3] = test system: Ba/F3 cells expressing L858R/T790M/C797S (EGFR-LTC); experiment: Growth inhibition (GI50) of Ba/F3 cells expressing L858R/T790M/C797S (EGFR-LTC), Celltiter glo; settings: Mus musculus, BaF3, 72 h
Procedure: as §1, §2

parental Ba/F3 cell line = experiment: Growth inhibition (GI50) of the parental Ba/F3 cell line (not introduced with EGFR variants), Celltiter glo; settings: Mus musculus, BaF3, 72 h, parental Ba/F3 cells
Procedure: as §2

SMILES	GI50 [1]	GI50 [2]	GI50 [3]	GI50 (parental Ba/F3 cell line)
COc1nc(N2CCC(N3CCN(C)CC3)CC2)ccc1Nc1ncc(Cl)c(Nc2ccccc2CS(C)(=O)=O)n1 [Example 64]	2000 to 10000 nM	500 to 2000 nM	500 to 2000 nM	2000 to 10000 nM
CN1CCN(C2CCN(c3nc(Cl)c(Nc4ncc(Br)c(Nc5ccc(F)cc5NS(C)(=O)=O)n4)cc3C(F)(F)F)CC2)CC1 [Example 34, N-(2-((5-bromo-2-((2-chloro-6-(4-(4-methylpiperazin-1-yl)piperidin-1-yl)-5-(trifluoromethyl)pyridin-3-yl)amino)pyrimidin-4-yl)amino)-5-fluorophenyl)methanesulfonamide]	2000 to 10000 nM	500 to 2000 nM	100 to 500 nM	2000 to 10000 nM
CC(=O)Nc1cc(Cl)c(Cl)cc1Nc1nc(Nc2ccc(N3CCC(N4CCN(C)CC4)CC3)cc2Cl)ncc1Cl [Example 77, N-(4,5-dichloro-2-((5-chloro-2-((2-chloro-4-(4-(4-methylpiperazin-1-yl)piperidin-1-yl)phenyl)amino)pyrimidin-4-yl)amino)phenyl)acetamide]	500 to 2000 nM	500 to 2000 nM	500 to 2000 nM	500 to 2000 nM
CN1CCN(C2CCN(c3ccc(Nc4ncc(Br)c(Nc5ccc(F)cc5NS(C)(=O)=O)n4)c(Cl)c3)CC2)CC1 [Example 27, N-(2-((5-bromo-2-((2-chloro-4-(4-(4-methylpiperazin-1-yl)piperidin-1-yl)phenyl)amino)pyrimidin-4-yl)amino)-5-fluorophenyl)methanesulfonamide]	2000 to 10000 nM	100 to 500 nM	500 to 2000 nM	2000 to 10000 nM
COc1cc(N2CCC(N3CCN(C)CC3)CC2)c(C)cc1Nc1ncc(Cl)c(Nc2cc(Cl)c(Cl)cc2NC(C)=O)n1 [Example 71, N-(4,5-dichloro-2-((5-chloro-2-((2-methoxy-5-methyl-4-(4-(4-methylpiperazin-1-yl)piperidin-1-yl)phenyl)amino)pyrimidin-4-yl)amino)phenyl)acetamide]	100 to 500 nM	100 to 500 nM	100 to 500 nM	500 to 2000 nM
Cc1cc(Nc2ncc(Br)c(Nc3cc(Cl)ccc3NS(C)(=O)=O)n2)c(Cl)cc1N1CCC(N2CCN(C)CC2)CC1 [Example 93, N-(2-((5-bromo-2-((2-chloro-5-methyl-4-(4-(4-methylpiperazin-1-yl)piperidin-1-yl)phenyl)amino)pyrimidin-4-yl)amino)-4-chlorophenyl)methanesulfonamide]	500 to 2000 nM	1 to 25 nM	25 to 100 nM	2000 to 10000 nM
COc1cc(N2CCC(N3CCN(C)CC3)CC2)c(C)cc1Nc1ncc(Cl)c(Nc2cc(Cl)c(Cl)cc2NS(C)(=O)=O)n1 [Example 99, N-(4,5-dichloro-2-((5-chloro-2-((2-methoxy-5-methyl-4-(4-(4-methylpiperazin-1-yl)piperidin-1-yl)phenyl)amino)pyrimidin-4-yl)amino)phenyl)methanesulfonamide]	500 to 2000 nM	25 to 100 nM	25 to 100 nM	> 10000 nM
COc1nc(N2CCC(F)(F)CC2)ccc1Nc1ncc(Br)c(Nc2ccc(F)cc2NS(C)(=O)=O)n1 [Example 33, N-(2-((5-Bromo-2-((6-(4,4-difluoropiperidin-1-yl)-2-methoxypyridin-3-yl)amino)pyrimidin-4-yl)amino)-5-fluorophenyl)methanesulfonamide]	2000 to 10000 nM	2000 to 10000 nM	2000 to 10000 nM	2000 to 10000 nM
COc1cc(N2CCC(N3CCN(C4CC4)CC3)CC2)c(C)cc1Nc1ncc(Br)c(Nc2ccc(F)cc2NS(C)(=O)=O)n1 [Example 42, N-(2-((5-bromo-2-((4-(4-(4-cyclopropylpiperazin-1-yl)piperidin-1-yl)-2-methoxy-5-methylphenyl)amino)pyrimidin-4-yl)amino)-5-fluorophenyl)methanesulfonamide]	500 to 2000 nM	25 to 100 nM	100 to 500 nM	500 to 2000 nM
COc1nc(N2CCC(N3CCN(C)CC3)CC2)ccc1Nc1ncc(Cl)c(N(c2ccccc2NS(C)(=O)=O)S(C)(=O)=O)n1 [Example 10, N-(5-chloro-2-((2-methoxy-6-(4-(4-methylpiperazin-1-yl)piperidin-1-yl)pyridin-3-yl)amino)pyrimidin-4-yl)-N-(2-(methylsulfonamido)phenyl)methanesulfonamide]	500 to 2000 nM	500 to 2000 nM	500 to 2000 nM	2000 to 10000 nM

Further lines, with some results ahead:

GI50 [1]	GI50 [2]	GI50 [3]	SMILES	GI50 (parental Ba/F3 cell line)
500 to 2000 nM	25 to 100 nM	100 to 500 nM	COc1nc(N2CCC(N3CCN(C)CC3)CC2)c(C)cc1Nc1ncc(Cl)c(Nc2ccc3ncccc3c2NS(C)(=O)=O)n1 [Example 116, N-(6-((5-chloro-2-((2-methoxy-5-methyl-6-(4-(4-methylpiperazin-1-yl)piperidin-1-yl)pyridin-3-yl)amino)pyrimidin-4-yl)amino)quinolin-5-yl)methanesulfonamide]	2000 to 10000 nM
500 to 2000 nM	100 to 500 nM	100 to 500 nM	COc1cc(N2CCC(N3CCN(C)CC3)CC2)c(Cl)cc1Nc1ncc(Cl)c(Nc2ccc3nccnc3c2NS(C)(=O)=O)n1 [Example 136, N-(6-((5-chloro-2-((5-chloro-2-methoxy-4-(4-(4-methylpiperazin-1-yl)piperidin-1-yl)phenyl)amino)pyrimidin-4-yl)amino)quinoxalin-5-yl)methanesulfonamide]	500 to 2000 nM
25 to 100 nM	25 to 100 nM	25 to 100 nM	COc1cc(N2CCC(N3CCN(C)CC3)CC2)c(Cl)cc1Nc1ncc(Cl)c(Nc2cc(Cl)ccc2-c2cnn[nH]2)n1 [Example 186]	100 to 500 nM
2000 to 10000 nM	2000 to 10000 nM	2000 to 10000 nM	COc1cc(N2CCC(N3CCN(C)CC3)CC2)c(C)cc1Nc1ncc(Cl)c(N(C)c2ccccc2NS(C)(=O)=O)n1 [Example 120, N-(2-((5-chloro-2-((2-methoxy-5-methyl-4-(4-(4-methylpiperazin-1-yl)piperidin-1-yl)phenyl)amino)pyrimidin-4-yl)(methyl)amino)phenyl)methanesulfonamide]	> 10000 nM
500 to 2000 nM	500 to 2000 nM	500 to 2000 nM	COc1cc(N2CCC(N3CCN(C)CC3)CC2)c(C)cc1Nc1nc(N)c(Cl)c(Nc2ccc(F)cc2NS(C)(=O)=O)n1 [Example 141, N-(2-((6-amino-5-chloro-2-((2-methoxy-5-methyl-4-(4-(4-methylpiperazin-1-yl)piperidin-1-yl)phenyl)amino)pyrimidin-4-yl)amino)-5-fluorophenyl)methanesulfonamide]	> 10000 nM
500 to 2000 nM	500 to 2000 nM	500 to 2000 nM	COc1cc(N2CCC(N(C)CCN(C)C)CC2)c(C)cc1Nc1ncc(Cl)c(Nc2cc(Cl)c(Cl)cc2NS(C)(=O)=O)n1 [Example 104, N-(4,5-dichloro-2-((5-chloro-2-((4-(4-((2-(dimethylamino)ethyl)(methyl)amino)piperidin-1-yl)-2-methoxy-5-methylphenyl)amino)pyrimidin-4-yl)amino)phenyl)methanesulfonamide]	500 to 2000 nM
500 to 2000 nM	1 to 25 nM	25 to 100 nM	COc1cc(N2CCC(N3CCN(C)CC3)CC2)c(C)cc1Nc1ncc(Br)c(Nc2cc(C)ccc2NS(C)(=O)=O)n1 [Example 106, N-(2-((5-bromo-2-((2-methoxy-5-methyl-4-(4-(4-methylpiperazin-1-yl)piperidin-1-yl)phenyl)amino)pyrimidin-4-yl)amino)-4-methylphenyl)methanesulfonamide]	500 to 2000 nM
100 to 500 nM	100 to 500 nM	25 to 100 nM	COc1nc(N2CCC(N3CCN(C)CC3)CC2)c(C)cc1Nc1ncc(Cl)c(Nc2ccc3nccnc3c2P(C)(C)=O)n1 [Example 122, (6-((5-chloro-2-((2-methoxy-5-methyl-6-(4-(4-methylpiperazin-1-yl)piperidin-1-yl)pyridin-3-yl)amino)pyrimidin-4-yl)amino)quinoxalin-5-yl)dimethylphosphine oxide]	500 to 2000 nM
500 to 2000 nM	100 to 500 nM	100 to 500 nM	COc1cc(N2CCC(N3CCN(C)CC3)CC2)ccc1Nc1ncc(Cl)c(Nc2ccc3nccnc3c2NS(C)(=O)=O)n1 [Example 133, N-(6-((5-chloro-2-((2-methoxy-4-(4-(4-methylpiperazin-1-yl)piperidin-1-yl)phenyl)amino)pyrimidin-4-yl)amino)quinoxalin-5-yl)methanesulfonamide]	500 to 2000 nM
500 to 2000 nM	100 to 500 nM	100 to 500 nM	COc1nc(N2CCC(N3CCN(C)CC3)CC2)ccc1Nc1ncc(Cl)c(Nc2ccc3nccnc3c2NS(C)(=O)=O)n1 [Example 132, N-(6-((5-chloro-2-((2-methoxy-6-(4-(4-methylpiperazin-1-yl)piperidin-1-yl)pyridin-3-yl)amino)pyrimidin-4-yl)amino)quinoxalin-5-yl)methanesulfonamide]	500 to 2000 nM
500 to 2000 nM	100 to 500 nM	100 to 500 nM	COc1nc(N2CCC(N3CCN(C)CC3)CC2)c(C)cc1Nc1ncc(Cl)c(Nc2cc(Cl)c(Cl)cc2NS(C)(=O)=O)n1 [Example 100]	2000 to 10000 nM
